# How the values were obtained:
# GFAP = assay: ELISA of cortical GFAP, Aβ25-35 mouse model; type: in vivo; conditions: Experiment 2, post-treatment, 1 mg/kg
# Description: (§1) In Experiment 2, twelve mice per experimental group were administered Sc.Aβ or Aβ25-35-amyloid peptide on day 0 by i.c.v. injection. […] Animals were tested at day 7 and later.
# (§2) For each of Experiments 1-4, on day 7, all animals were tested for the spontaneous alternation performance in the Y-maze test, an index of spatial working memory. On day 8 and 9, the contextual long-term memory of the animals was assessed using the step-through type passive avoidance procedure. On day 9, immediately after the retention session, animals were sacrificed by decapitation and the hippocampus and cortex dissected out. Lipid peroxidation was analyzed in the hippocampus, whereas neuroinflammation, apoptosis, amyloid burden and hyperphosphorylation of tau protein were analyzed in cortex.
# (§3) Enzyme-linked immunosorbant assay (ELISA) assays: Contents in GFAP, Caspase 12, Amyloid-beta 1-40, Amyloid-beta 1-42, Total Tau, and pTau on Ser199 were analyzed by using commercial ELISA assay kit. • GFAP: Supplier: USCNK #Ref: SEA068Mu • Total Tau: Supplier: Novex #Ref: KMB7011 • pTau (S199): Supplier: Novex #Ref: KMB7041 • Amyloid beta 1-40: Supplier: Novex #Ref: KMB3481 • Amyloid beta 1-42: Supplier: Novex #Ref: KMB3441 • Caspase-12: Supplier: LSBio #Ref: LS-F11023 • BAX: Supplier: Euromedex#Ref: SEB343Mu • BCL2: Supplier: Euromedex #Ref: SEA778Mu […]
# caspase 12 = assay: ELISA of cortical caspase 12, Aβ25-35 mouse model; type: in vivo; conditions: Experiment 2, post-treatment, 1 mg/kg
# Description: as §1, §2, §3
# Aβ1-42 = assay: ELISA of cortical Aβ1-42, Aβ25-35 mouse model; type: in vivo; conditions: Experiment 2, post-treatment
# Description: as §1, §2, §3
# [1] = system: Tau protein phosphorylated on Serine 199 (pTauS199); assay: ELISA of cortical pTauS199, Aβ25-35 mouse model; type: in vivo; conditions: Experiment 2, post-treatment
# Description: as §1, §2, §3
# Bax/Bcl-2 = assay: ELISA of cortical Bax/Bcl-2 ratio, Aβ25-35 mouse model; type: in vivo; conditions: Experiment 2, post-treatment, 1 mg/kg
# Description: as §1, §2, §3
# [2] = system: sigma-1 receptor / BiP complex; assay: Dissociation of BiP from sigma-1 receptor in CHO cells; type: cell-based; conditions: 1 μM and 10 μM, 30 min
# Description: CHO cells were grown in a 6-well plates and treated with the compounds in culture medium at 37° C. for 30 min at 1 μM and 10 μM final concentration. The reaction was stopped by medium removal and adding 3 mL PBS at 37° C. CHO cells were harvested and suspended in 50 mM HEPES (pH7.4) followed by cross-linking with 50 μg/ml of dithio (bis) succinimidyl propionate (Thermo Fisher Scientific, Waltham, Mass.) for 30 min at 4° C. The reaction was stopped by adding Tris-HCl (pH 8.8, final 50 mM). Fifteen minutes after incubation on ice, cells were lysed with RIPA buffer [50 mM Tris (pH7.4), 150 mM NaCl, 1% Triton X-100, 0.3% sodium deoxycholate, 0.1% SDS, protease inhibitor cocktail (Roche Complete)]. After centrifugation at 12,000 g, 1 min, the supernatant was incubated overnight at 4° C. with Sig-1R antibody (Abcam). The cell lysate was incubated with Sepharose protein-A (Invitrogen) for 90 min. After centrifugation at 12,000 g, 1 min, the supernatant was discarded and the pellet was washed in 0.5 mL RIPA buffer. After a second centrifugation at 12,000 g, 20 min, the supernatant was discarded and the pellet was washed in 0.5 mL 2× Sample buffer/bMCE buffer. Following a third centrifugation at 12,000 g, 1 min, the supernatant was analysed by ELISA assay, according to the manufacturer's protocol (USCNK #SEC343Mu).
# [3] = system: Aβ25-35 mouse model of Alzheimer's disease; assay: Aβ25-35 mouse model, overall neuroprotection (summary statements); type: in vivo
# Description: The compound efficacy was evaluated 7 days after the peptide administration on the attenuation of the Aβ25-35-induced learning deficits (spatial working memory using the spontaneous alternation in the Y-maze test, and contextual long-term memory using the passive avoidance test).
# The mice were tested 7 days post injection or at the indicated time points.
# as §1
# The synergy/additivity/antagonism was evaluated by calculating the combination index. […] Animals were then tested at day 7 and later.
# Animals were tested at day 7 and later.
# as §2
smiles,measurement,setting,value
"CCC(C/C=C/c1ccccc1)(c1ccccc1)N(C)CC1CC1 (single isomer, unassigned; (+)) [igmesine, (+)-(E)-N-(cyclopropylmethyl)-N-methyl-3,6-diphenylhex-5-en-3-amine]",cortical GFAP elevation,GFAP,fully normalized
same,cortical caspase 12 elevation,caspase 12,fully normalized
same,cortical Aβ1-42 elevation,Aβ1-42,fully normalized
same,elevation of cortical pTauS199,[1],fully normalized
same,cortical Bax/Bcl-2 ratio elevation,Bax/Bcl-2,fully normalized
same,dissociation of BiP from sigma-1 receptor,[2],produced the dissociation of BiP from sigma-1 receptor in a dose-dependent manner
same,dose in combination versus dose active on depression (fold lower),"[3]; combined with donepezil, ibuprofen, selegiline or atorvastatin",300 fold
same,"lowest dose with effect, preventive treatment",[3]; given 20 min before Aβ25-35,0.3 mg/kg
same,"lowest dose with effect, curative treatment",[3]; starting 1 day after induction of the toxicity,1 mg/kg
same,synergistic effect in combination,"[3]; with donepezil, ibuprofen, selegiline or atorvastatin, not with memantine",clear synergistic effect
